Here are results for one compound from patent US20250312462A1, “PAK1 DEGRADERS AND METHODS OF USE THEREOF” (INSTITUTE FOR CANCER RESEARCH D/B/A THE RESEARCH INSTITUTE …, priority 2022, published 2025).

Among the targets are RIOK2 (Homo sapiens, UniProt Q9BVS4); MAK (Homo sapiens, UniProt P20794); EPHA7 (Homo sapiens, UniProt Q15375); LIMK2 (Homo sapiens, UniProt P53671); TGFBR2 (Homo sapiens, UniProt P37173); CSNK1D (Homo sapiens, UniProt P48730); MAP4K4 (Homo sapiens, UniProt O95819); TAOK3 (Homo sapiens, UniProt Q9H2K8); BRAF (Homo sapiens, UniProt P15056); PIK3CD (Homo sapiens, UniProt O00329); FES (Homo sapiens, UniProt P07332); CSNK1A1L (Homo sapiens, UniProt Q8N752); FGFR4 (Homo sapiens, UniProt P22455); CSNK2A2 (Homo sapiens, UniProt P19784); AURKC (Homo sapiens, UniProt Q9UQB9); FLT3(N841I) (Homo sapiens, UniProt P36888, N841I); ULK2 (Homo sapiens, UniProt Q8IYT8); FYN (Homo sapiens, UniProt P06241); WNK1 (Homo sapiens, UniProt Q9H4A3); DAPK2 (Homo sapiens, UniProt Q9UIK4); MLK2 (Homo sapiens, UniProt Q02779).

Assay in all cases: KINOMEscan
What all share (details): read-out: Percent Control

For test [1], the target named is ABL1(Q252H)-phosphorylated (Homo sapiens, UniProt P00519, Q252H).
Protocol: (§1) The kinase engagement assay (KINOMEscan®) was performed by DiscoverX assessing binding abilities toward a set of kinases.
For test [2], the target named is ABL1(H396P)-nonphosphorylated (Homo sapiens, UniProt P00519, H396P).
Protocol: as §1
The target in test [3] is ABL1(T315I)-phosphorylated (Homo sapiens, UniProt P00519, T315I).
Protocol: as §1

TGFBR2, sequence (P37173 23-567): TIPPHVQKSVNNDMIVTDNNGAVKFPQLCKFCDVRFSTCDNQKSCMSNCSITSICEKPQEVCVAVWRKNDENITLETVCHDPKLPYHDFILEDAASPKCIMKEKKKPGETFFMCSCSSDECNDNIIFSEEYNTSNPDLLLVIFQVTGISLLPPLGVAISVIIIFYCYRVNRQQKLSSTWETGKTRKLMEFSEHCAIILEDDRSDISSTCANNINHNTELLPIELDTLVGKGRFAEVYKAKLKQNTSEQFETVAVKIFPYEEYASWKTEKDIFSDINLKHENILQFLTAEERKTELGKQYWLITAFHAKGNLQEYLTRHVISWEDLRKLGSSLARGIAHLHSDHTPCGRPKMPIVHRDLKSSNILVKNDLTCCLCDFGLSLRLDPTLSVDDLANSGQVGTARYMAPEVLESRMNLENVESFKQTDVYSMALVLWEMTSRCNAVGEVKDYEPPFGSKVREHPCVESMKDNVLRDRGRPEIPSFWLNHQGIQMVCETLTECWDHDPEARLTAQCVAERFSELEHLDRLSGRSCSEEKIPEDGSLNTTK
FES, sequence (P07332 whole entry): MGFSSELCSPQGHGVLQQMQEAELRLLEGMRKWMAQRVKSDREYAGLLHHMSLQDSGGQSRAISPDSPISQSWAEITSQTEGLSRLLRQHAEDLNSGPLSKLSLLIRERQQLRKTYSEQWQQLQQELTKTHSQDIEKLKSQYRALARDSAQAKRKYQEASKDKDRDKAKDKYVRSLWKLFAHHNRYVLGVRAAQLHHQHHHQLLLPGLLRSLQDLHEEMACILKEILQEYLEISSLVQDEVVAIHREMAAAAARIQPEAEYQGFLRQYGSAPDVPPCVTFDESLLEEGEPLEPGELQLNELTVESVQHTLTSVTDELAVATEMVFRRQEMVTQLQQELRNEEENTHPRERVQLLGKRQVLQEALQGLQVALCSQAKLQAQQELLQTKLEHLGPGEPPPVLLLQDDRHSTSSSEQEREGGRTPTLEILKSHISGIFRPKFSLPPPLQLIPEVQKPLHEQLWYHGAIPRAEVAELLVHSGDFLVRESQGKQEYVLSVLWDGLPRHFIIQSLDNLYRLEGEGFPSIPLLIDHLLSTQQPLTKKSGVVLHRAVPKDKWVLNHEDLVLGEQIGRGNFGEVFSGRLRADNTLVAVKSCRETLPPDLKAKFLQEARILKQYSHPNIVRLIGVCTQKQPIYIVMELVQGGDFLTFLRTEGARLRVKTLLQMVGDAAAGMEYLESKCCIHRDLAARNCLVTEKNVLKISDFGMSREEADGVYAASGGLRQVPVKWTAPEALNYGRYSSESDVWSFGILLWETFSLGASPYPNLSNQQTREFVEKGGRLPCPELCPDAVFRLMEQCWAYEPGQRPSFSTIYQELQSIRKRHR
CSNK2A2, sequence (P19784 whole entry): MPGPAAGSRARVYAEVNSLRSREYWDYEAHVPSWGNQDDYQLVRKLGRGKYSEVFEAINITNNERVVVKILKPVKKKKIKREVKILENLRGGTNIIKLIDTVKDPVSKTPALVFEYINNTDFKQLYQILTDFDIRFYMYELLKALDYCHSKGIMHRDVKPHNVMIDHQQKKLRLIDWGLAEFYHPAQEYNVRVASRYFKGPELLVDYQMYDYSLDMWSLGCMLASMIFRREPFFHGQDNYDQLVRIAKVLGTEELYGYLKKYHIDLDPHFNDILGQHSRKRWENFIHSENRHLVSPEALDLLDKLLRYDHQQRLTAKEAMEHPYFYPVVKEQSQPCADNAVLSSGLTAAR
MAP4K4, sequence (O95819 whole entry): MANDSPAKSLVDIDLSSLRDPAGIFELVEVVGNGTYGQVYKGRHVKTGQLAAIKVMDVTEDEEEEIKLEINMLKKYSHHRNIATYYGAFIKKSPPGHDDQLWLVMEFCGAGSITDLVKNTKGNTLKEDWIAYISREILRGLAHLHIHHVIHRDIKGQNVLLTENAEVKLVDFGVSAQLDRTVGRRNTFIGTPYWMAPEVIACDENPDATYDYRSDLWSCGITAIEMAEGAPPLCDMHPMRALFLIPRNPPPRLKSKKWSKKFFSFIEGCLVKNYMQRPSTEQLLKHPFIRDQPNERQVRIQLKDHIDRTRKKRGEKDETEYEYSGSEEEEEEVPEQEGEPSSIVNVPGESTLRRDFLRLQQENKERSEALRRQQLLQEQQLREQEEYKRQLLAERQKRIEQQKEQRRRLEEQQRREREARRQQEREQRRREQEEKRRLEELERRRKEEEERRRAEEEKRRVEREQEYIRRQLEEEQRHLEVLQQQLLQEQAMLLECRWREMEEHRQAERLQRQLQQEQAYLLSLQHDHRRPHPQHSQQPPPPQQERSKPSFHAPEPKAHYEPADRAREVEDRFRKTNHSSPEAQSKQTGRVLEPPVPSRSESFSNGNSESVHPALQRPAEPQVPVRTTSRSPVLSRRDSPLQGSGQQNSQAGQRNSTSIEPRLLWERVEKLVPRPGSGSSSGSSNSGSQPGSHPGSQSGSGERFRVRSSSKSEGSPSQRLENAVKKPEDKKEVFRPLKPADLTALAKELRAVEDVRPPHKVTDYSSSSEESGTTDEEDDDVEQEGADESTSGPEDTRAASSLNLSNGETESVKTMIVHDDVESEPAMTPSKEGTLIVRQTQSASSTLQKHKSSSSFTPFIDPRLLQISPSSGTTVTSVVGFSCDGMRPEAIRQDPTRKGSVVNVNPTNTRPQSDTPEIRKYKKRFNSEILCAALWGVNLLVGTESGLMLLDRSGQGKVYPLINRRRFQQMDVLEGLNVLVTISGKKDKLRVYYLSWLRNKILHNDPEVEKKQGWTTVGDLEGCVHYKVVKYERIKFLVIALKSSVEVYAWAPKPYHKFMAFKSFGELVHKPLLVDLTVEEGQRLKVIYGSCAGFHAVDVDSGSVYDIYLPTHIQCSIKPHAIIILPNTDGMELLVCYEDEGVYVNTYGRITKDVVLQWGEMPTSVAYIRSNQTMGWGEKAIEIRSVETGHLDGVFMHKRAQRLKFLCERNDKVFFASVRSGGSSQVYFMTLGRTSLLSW
MAK, sequence (P20794 whole entry): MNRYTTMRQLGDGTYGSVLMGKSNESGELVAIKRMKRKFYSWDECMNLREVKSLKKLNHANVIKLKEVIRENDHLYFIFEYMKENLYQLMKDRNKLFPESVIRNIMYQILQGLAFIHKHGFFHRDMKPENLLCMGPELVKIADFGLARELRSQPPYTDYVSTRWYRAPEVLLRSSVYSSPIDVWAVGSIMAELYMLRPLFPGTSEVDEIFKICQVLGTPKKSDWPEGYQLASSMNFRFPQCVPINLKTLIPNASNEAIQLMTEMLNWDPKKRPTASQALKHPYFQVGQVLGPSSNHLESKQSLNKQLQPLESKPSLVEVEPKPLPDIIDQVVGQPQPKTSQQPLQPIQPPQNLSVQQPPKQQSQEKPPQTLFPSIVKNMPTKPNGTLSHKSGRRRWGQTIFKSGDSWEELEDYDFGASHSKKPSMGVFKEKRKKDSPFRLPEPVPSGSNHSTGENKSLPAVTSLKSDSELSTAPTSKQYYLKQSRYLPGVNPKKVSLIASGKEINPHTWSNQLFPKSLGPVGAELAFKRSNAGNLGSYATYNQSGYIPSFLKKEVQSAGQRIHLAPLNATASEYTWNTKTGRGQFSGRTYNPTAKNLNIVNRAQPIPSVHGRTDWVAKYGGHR
BRAF, sequence (P15056 whole entry): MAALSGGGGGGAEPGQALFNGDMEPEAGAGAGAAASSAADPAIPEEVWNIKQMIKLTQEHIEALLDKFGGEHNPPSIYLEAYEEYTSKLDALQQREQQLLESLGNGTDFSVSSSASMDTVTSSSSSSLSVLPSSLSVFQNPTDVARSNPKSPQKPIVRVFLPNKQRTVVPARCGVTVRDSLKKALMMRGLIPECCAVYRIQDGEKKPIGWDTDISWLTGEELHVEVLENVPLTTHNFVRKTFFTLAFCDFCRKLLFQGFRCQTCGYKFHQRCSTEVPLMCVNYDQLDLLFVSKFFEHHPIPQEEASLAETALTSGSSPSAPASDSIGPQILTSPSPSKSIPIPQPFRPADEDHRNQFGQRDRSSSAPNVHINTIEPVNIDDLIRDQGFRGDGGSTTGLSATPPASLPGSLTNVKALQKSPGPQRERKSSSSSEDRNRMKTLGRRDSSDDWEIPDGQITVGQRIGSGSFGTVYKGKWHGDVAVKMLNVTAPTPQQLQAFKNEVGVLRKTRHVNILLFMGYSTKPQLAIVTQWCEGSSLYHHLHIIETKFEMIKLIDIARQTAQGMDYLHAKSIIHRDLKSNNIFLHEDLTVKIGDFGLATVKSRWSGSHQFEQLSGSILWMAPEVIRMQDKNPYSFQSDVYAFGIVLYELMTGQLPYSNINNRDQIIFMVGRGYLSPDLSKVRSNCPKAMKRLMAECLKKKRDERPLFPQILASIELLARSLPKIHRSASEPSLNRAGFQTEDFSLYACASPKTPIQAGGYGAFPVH
AURKC, sequence (Q9UQB9 whole entry): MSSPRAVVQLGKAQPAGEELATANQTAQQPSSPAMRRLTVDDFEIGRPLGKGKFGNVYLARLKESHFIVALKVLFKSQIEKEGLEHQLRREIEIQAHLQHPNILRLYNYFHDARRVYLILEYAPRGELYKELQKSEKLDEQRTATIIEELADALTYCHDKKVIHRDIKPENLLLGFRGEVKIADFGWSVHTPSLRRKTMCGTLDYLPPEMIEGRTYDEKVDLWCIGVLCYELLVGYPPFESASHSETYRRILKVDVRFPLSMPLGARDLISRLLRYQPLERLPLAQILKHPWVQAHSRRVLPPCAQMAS
CSNK1A1L, sequence (Q8N752 whole entry): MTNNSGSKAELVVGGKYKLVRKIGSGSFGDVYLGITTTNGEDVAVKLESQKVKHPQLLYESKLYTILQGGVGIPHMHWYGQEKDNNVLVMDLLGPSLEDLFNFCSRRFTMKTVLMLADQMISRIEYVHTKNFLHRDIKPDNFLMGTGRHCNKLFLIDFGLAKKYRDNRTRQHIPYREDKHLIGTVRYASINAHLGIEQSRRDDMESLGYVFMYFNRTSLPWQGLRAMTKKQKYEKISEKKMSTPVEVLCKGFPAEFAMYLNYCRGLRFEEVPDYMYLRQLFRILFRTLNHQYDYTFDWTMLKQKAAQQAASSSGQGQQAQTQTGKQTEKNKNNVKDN
Protocol for AURKC: as §1
Protocol for BRAF: as §1
Protocol for CSNK1A1L: as §1
Protocol for CSNK1D: as §1
Protocol for CSNK2A2: as §1
Protocol for DAPK2: as §1
Protocol for EPHA7: as §1
Protocol for FES: as §1
Protocol for FGFR4: as §1
Protocol for FLT3(N841I): as §1
Protocol for FYN: as §1
Protocol for LIMK2: as §1
Protocol for MAK: as §1
Protocol for MAP4K4: as §1
Protocol for MLK2: as §1
Protocol for PIK3CD: as §1
Protocol for RIOK2: as §1
Protocol for TAOK3: as §1
Protocol for TGFBR2: as §1
Protocol for ULK2: as §1
Protocol for WNK1: as §1

For `O=C1CCC(N2C(=O)c3cccc(NCCCCCCCCNC(=O)N4CC[C@H](NC5=Nc6cc(F)ccc6N(CC(F)F)c6ccc(Cl)cc65)C4)c3C2=O)C(=O)N1` (stereo partly drawn) [BJG-05-039, (3S)-3-((2-Chloro-5-(2,2-difluoroethyl)-8-fluoro-5H-dibenzo[b,e][1,4]diazepin-11-yl)amino)-N-(8-((2-(2,6-dioxopiperidin-3-yl)-1,3-dioxoisoindolin-4-yl)amino)octyl)pyrrolidine-1-carboxamide], the remaining binding at 10 µM was found to be 99% on RIOK2; 98% on MAK; 90% on EPHA7; 72% on LIMK2; 75% at TGFBR2; 60% at CSNK1D. The remaining binding at 10 µM was determined as 45% on MAP4K4; 85% on TAOK3; 98% on BRAF; 100% on PIK3CD; 86% at FES; 83% on CSNK1A1L. In addition, the remaining binding at 10 µM in [1] is 100%; at FGFR4, 68%; at CSNK2A2 it was 78%; on AURKC, 83%; on FLT3(N841I), 100%; in [2] it was 98%. Further, the remaining binding at 10 µM at ULK2 is 82%; on FYN, 71%; in test [3], 100%; on WNK1, 74%; at DAPK2 it was 41%; on MLK2, 97%.
